We go through 18 compounds from patent US20250236627A1, “CERTAIN OCTAHYDROFURO[3,4- B]PYRAZINES AS GLP-1 RECEPTOR MODULATORS” (ASTRAZENECA AB, priority 2021, published 2025).

For one experiment, the target named is T1, human GLP-1R receptor (Homo sapiens, UniProt P43220, L260F).
T1 construct: expressed in transfected cells; host or cells: CHO-K1 (ATCC CCL-61)
The experiment in a line: CHOK1 GLP-1R cAMP Assay. The class given is cell-based. To be noted: CHO-K1 cell line stably expressing human GLP-1R; HTRF cAMP detection. An outline of the steps:
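CHO-K1 cells, 800/well, stimulated 20 min at room temperature with compound in HEPES pH 7.4/HBSS/0.1% BSA plus IBMX (1 mM in the added buffer). cAMP measured by HTRF competitive immunoassay after ≥1 h, converted to pM via standard curve. EC50 from 4-parameter logistic fit; % effect relative to saturating GLP1(7-36)NH2.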

Experiment [1] deals with T2, endogenous human glucagon-like peptide 1 receptor (GLP-1R) (Homo sapiens, UniProt P43220).
T2 construct: endogenous human glucagon-like peptide 1 receptor (GLP-1R) in a pancreatic insulinoma cell line; host or cells: EndoC-βH1 human pancreatic β cell line
T2 sequence (P43220 24-463): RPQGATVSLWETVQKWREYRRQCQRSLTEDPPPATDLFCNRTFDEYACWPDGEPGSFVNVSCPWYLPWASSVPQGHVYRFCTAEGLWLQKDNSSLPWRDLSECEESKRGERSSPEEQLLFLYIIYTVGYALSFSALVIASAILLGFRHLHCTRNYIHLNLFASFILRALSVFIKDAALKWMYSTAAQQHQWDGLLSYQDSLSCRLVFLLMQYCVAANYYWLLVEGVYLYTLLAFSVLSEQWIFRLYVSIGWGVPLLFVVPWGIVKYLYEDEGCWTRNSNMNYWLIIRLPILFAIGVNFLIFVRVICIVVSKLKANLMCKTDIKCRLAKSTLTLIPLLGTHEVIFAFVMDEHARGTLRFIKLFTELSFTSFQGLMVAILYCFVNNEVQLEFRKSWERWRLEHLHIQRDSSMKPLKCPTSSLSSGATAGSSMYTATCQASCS
The experiment in a line: EndoC cAMP Accumulation Assay. It is filed as cell-based. The conditions noted are these: EndoC-βH1 human pancreatic β cell line; HTRF cAMP assay. Put shortly:
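Thawed EndoC-βH1 cells (3000 per well) were stimulated for 30 min at room temperature in HBSS/25 mM HEPES pH 7.4, 0.1% BSA and 0.5 mM IBMX. cAMP was measured by HTRF competitive immunoassay after 1 h. Responses were fitted by 4-parameter logistic as % activation relative to maximal GIP (82.5 nM), with basal cAMP as zero.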

Experiment [2] addresses T3, human phosphodiesterase-3A (Homo sapiens, UniProt Q14432).
T3 construct: host or cells: Sf9 cells
The experiment in a line: PDE3 Assay. It is filed as biochemical. The conditions noted are these: human recombinant enzyme expressed in Sf9 cells; formation of 5′AMP from cAMP. The procedure:
Evaluation of the effects of compounds on the activity of the human phosphodiesterase-3A is quantified by measuring the formation of 5′AMP from cAMP using a human recombinant enzyme expressed in Sf9 cells.
The test compound, reference compound or water (control) are added to a buffer containing 40 mM Tris/HCl (pH 7.4) and 8 mM MgCl2, 450 nM cAMP and 0.25 μCi [^3H]cAMP.
Thereafter, the reaction is initiated by addition of the enzyme (about 1 U) and the mixture is incubated for 20 min at 22° C.
For basal control measurements, the enzyme is omitted from the reaction mixture.
Following incubation SPA beads are added. After 30 min at 22° C. under shaking, the amount of [^3H]5′AMP is quantified with a scintillation counter (Topcount, Packard).
The results are expressed as a percent inhibition of the control enzyme activity. The standard inhibitory reference compound is milrinone (CAS number 78415-72-2), which is tested in each experiment at several concentrations to obtain an inhibition curve from which its IC50 value is calculated.

pEC50, pIC50: −log10 of the molar value.

T1 sequence (P43220 24-463 L260F): as the sequence (P43220 24-463) above, with L237F counted along it
T3 sequence (Q14432 whole entry): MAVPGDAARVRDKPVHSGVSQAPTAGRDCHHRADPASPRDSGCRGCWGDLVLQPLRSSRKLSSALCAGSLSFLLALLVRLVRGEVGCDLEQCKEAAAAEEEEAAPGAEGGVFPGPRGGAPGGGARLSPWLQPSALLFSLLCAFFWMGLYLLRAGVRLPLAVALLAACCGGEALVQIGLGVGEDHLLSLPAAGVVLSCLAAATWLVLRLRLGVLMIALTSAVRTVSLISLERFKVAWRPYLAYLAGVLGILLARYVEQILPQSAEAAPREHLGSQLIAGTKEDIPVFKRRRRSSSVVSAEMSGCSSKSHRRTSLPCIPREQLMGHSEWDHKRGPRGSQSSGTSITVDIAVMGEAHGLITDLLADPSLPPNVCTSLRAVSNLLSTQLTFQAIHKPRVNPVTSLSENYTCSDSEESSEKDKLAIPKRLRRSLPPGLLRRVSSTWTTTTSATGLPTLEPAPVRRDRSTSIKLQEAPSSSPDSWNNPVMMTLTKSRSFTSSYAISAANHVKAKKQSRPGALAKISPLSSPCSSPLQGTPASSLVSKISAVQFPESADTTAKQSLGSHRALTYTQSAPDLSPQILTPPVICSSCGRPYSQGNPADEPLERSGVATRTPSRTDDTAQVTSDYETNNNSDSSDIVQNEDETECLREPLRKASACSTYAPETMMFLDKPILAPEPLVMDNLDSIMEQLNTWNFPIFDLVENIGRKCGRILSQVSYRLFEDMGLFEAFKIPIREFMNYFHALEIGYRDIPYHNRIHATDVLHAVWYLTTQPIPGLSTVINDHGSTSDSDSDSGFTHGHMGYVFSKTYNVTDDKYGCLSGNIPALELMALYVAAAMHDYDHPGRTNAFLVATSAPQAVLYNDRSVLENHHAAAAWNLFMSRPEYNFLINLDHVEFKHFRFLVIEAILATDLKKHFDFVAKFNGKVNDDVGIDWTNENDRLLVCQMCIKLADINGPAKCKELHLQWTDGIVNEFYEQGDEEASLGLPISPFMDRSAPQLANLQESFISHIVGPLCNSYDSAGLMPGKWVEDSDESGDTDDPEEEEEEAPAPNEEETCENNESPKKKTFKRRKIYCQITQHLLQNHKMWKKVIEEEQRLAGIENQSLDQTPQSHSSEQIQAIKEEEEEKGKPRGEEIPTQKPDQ

In general, pEC50 refers to the EC50 on a negative log10 scale, so that one unit is a factor of ten. A higher pEC50 goes with a small EC50. As a reminder, the pIC50 is the negative decadic logarithm of the IC50, by convention in mol/L. Take `C[C@]1(c2ccc(Cl)cn2)Oc2cccc(N3CCN(Cc4nc5c(Cl)cc(C(=O)O)cc5n4CC4(C#N)CC4)[C@H]4COC[C@H]43)c2O1` (single isomer, unassigned) [Example 23a]: the pEC50 on human GLP-1R receptor was 8.74; in experiment [1] it was 8.30. For the same compound, the pIC50 in experiment [2] is less than 4.00.
For the compound `C[C@]1(c2ccc(Cl)cn2)Oc2cccc(N3CCN(Cc4nc5c(F)cc(C(=O)O)cc5n4C[C@@H]4CCO4)[C@H]4COC[C@H]43)c2O1` (single isomer, unassigned) [Example 9d, 2-(((4aR*,7aS*)-4-((R*)-2-(5-Chloropyridin-2-yl)-2-methylbenzo[d][1,3]dioxol-4-yl)hexahydrofuro[3,4-b]pyrazin-1(2H)-yl)methyl)-4-fluoro-1-(((S)-oxetan-2-yl)methyl)-1H-benzo[d]imidazole-6-carboxylic acid], the values for the pEC50 (at human GLP-1R receptor; in experiment [1]) were 6.49 and 5.68, respectively. The pIC50 in experiment [2] is less than 4.00.
On the same counts, the results for `C[C@]1(c2ccc(Cl)cn2)Oc2cccc(N3CCN(Cc4nc5ccc(C(=O)O)cc5n4C[C@@H]4CCCO4)[C@H]4COC[C@H]43)c2O1` (single isomer, unassigned) [Example 8a, 2-(((4aR*,7aS*)-4-((R*)-2-(5-Chloropyridin-2-yl)-2-methylbenzo[d][1,3]dioxol-4-yl)hexahydrofuro[3,4-b]pyrazin-1(2H)-yl)methyl)-1-(((S)-tetrahydrofuran-2-yl)methyl)-1H-benzo[d]imidazole-6-carboxylic acid] are 7.82, 7.77 and less than 4.00.
In the case of `COc1cc(C(=O)O)cc2c1nc(CN1CCN(c3cccc4c3O[C@@](C)(c3ccc(Cl)cn3)O4)[C@@H]3COC[C@@H]31)n2C[C@@H]1CCO1` (single isomer, unassigned) [Example 1a, 2-(((4aR*,7aS*)-4-((R*)-2-(5-Chloropyridin-2-yl)-2-methylbenzo[d][1,3]dioxol-4-yl)hexahydrofuro[3,4-b]pyrazin-1(2H)-yl)methyl)-4-methoxy-1-(((S)-oxetan-2-yl)methyl)-1H-benzo[d]imidazole-6-carboxylic acid], the pEC50 is 6.85 on human GLP-1R receptor and 6.68 in experiment [1].
For the compound `C[C@]1(c2ccc(Cl)cn2)Oc2cccc(N3CCN(Cc4nc5ccc(C(=O)O)cc5n4C[C@@H]4CCO4)[C@H]4COC[C@H]43)c2O1` (single isomer, unassigned) [Example 5c, 2-(((4aR*,7aS*)-4-((R*)-2-(5-Chloropyridin-2-yl)-2-methylbenzo[d][1,3]dioxol-4-yl)hexahydrofuro[3,4-b]pyrazin-1(2H)-yl)methyl)-1-(((S)-oxetan-2-yl)methyl)-1H-benzo[d]imidazole-6-carboxylic acid], the figures for the pEC50 (on human GLP-1R receptor; in experiment [1]) were 7.00 and 6.21, respectively.
Take `C[C@]1(c2ccc(Cl)cn2)Oc2cccc(N3CCN(Cc4nc5ccc(C(=O)O)cc5n4C[C@@H]4CCO4)[C@H]4COC[C@H]43)c2O1` (single isomer, unassigned) [Example 5d, 2-(((4aR*,7aS*)-4-((R*)-2-(5-Chloropyridin-2-yl)-2-methylbenzo[d][1,3]dioxol-4-yl)hexahydrofuro[3,4-b]pyrazin-1(2H)-yl)methyl)-1-(((S)-oxetan-2-yl)methyl)-1H-benzo[d]imidazole-6-carboxylic acid]: the negative logarithm of the EC50 (pEC50) was 6.48 on human GLP-1R receptor and 5.68 in experiment [1].
Take `Cc1nccn1CCn1c(CN2CCN(c3cccc4c3O[C@@](C)(c3ccc(Cl)cc3F)O4)[C@@H]3COC[C@@H]32)nc2c(Cl)cc(C(=O)O)cc21` (single isomer, unassigned) [Example 18]: the pEC50 at human GLP-1R receptor is 7.59; in experiment [1], 8.21.
On the same counts, the results for `C[C@]1(c2ccc(Cl)cn2)Oc2cccc(N3CCN(Cc4nc5c(Cl)cc(C(=O)O)cc5n4C[C@@H]4CCO4)[C@H]4COC[C@H]43)c2O1` (single isomer, unassigned) [Example 14d, 4-Chloro-2-(((4aR*,7aS*)-4-((R*)-2-(5-chloropyridin-2-yl)-2-methylbenzo[d][1,3]dioxol-4-yl)hexahydrofuro[3,4-b]pyrazin-1(2H)-yl)methyl)-1-(((S)-oxetan-2-yl)methyl)-1H-benzo[d]imidazole-6-carboxylic acid] are 6.72 and 6.32.
As for `C[C@]1(c2ccc(Cl)cc2F)Oc2cccc(N3CCN(Cc4nc5c(Cl)cc(C(=O)O)cc5n4Cc4cocn4)[C@H]4COC[C@H]43)c2O1` (single isomer, unassigned) [Example 19], the pEC50 on human GLP-1R receptor is 7.60; in experiment [1], 8.13.
On to `C[C@]1(c2ccc(Cl)cn2)Oc2cccc(N3CCN(Cc4nc5c(Cl)cc(C(=O)O)cc5n4CCn4cccn4)[C@H]4COC[C@H]43)c2O1` (single isomer, unassigned) [Example 27], for which the pEC50 was 7.09 at human GLP-1R receptor and 7.70 in experiment [1].
In the case of `COc1cc(C(=O)O)cc2c1nc(CN1CCN(c3cccc4c3O[C@@](C)(c3ccc(Cl)cc3F)O4)[C@@H]3COC[C@@H]31)n2C[C@@H]1CCO1` (single isomer, unassigned) [Example 3a, 2-(((4aR*,7aS*)-4-((R*)-2-(4-Chloro-2-fluorophenyl)-2-methylbenzo[d][1,3]dioxol-4-yl)hexahydrofuro[3,4-b]pyrazin-1(2H)-yl)methyl)-4-methoxy-1-(((S)-oxetan-2-yl)methyl)-1H-benzo[d]imidazole-6-carboxylic acid], the pEC50 is 8.92 at human GLP-1R receptor and 8.77 in experiment [1].
For the compound `N#Cc1ccc(COc2cccc(C3CCN(Cc4nc5ccc(C(=O)O)cc5n4C[C@@H]4CCO4)CC3)n2)c(F)c1` [Ref Comp B, reference compound], the pIC50 in experiment [2] was 4.96.
As to `C[C@]1(c2ccc(Cl)cn2)Oc2cccc(N3CCN(Cc4nc5c(Cl)cc(C(=O)O)cc5n4C[C@@H]4CCO4)[C@H]4COC[C@H]43)c2O1` (single isomer, unassigned) [Example 14a, 4-Chloro-2-(((4aR*,7aS*)-4-((R*)-2-(5-chloropyridin-2-yl)-2-methylbenzo[d][1,3]dioxol-4-yl)hexahydrofuro[3,4-b]pyrazin-1(2H)-yl)methyl)-1-(((S)-oxetan-2-yl)methyl)-1H-benzo[d]imidazole-6-carboxylic acid], the pEC50 is 8.82 at human GLP-1R receptor and 8.48 in experiment [1].
`C[C@]1(c2ccc(Cl)cn2)Oc2cccc(N3CCN(Cc4nc5c(F)cc(C(=O)O)cc5n4CC4(C#N)CC4)[C@H]4COC[C@H]43)c2O1` (single isomer, unassigned) [Example 22b]: the pEC50 on human GLP-1R receptor was 6.77; in experiment [1] it was 6.62.
`C[C@]1(c2ccc(Cl)cc2F)Oc2cccc(N3CCN(Cc4nc5c(F)cc(C(=O)O)cc5n4C[C@@H]4CCO4)[C@H]4COC[C@H]43)c2O1` (single isomer, unassigned) [Example 16b, 2-(((4aR*,7aS*)-4-((R*)-2-(4-Chloro-2-fluorophenyl)-2-methylbenzo[d][1,3]dioxol-4-yl)hexahydrofuro[3,4-b]pyrazin-1(2H)-yl)methyl)-4-fluoro-1-(((S)-oxetan-2-yl)methyl)-1H-benzo[d]imidazole-6-carboxylic acid]: the pEC50 was 6.92 at human GLP-1R receptor and 6.57 in experiment [1].
In the case of `C[C@]1(c2ccc(Cl)cc2F)Oc2cccc(N3CCN(Cc4nc5c(Cl)cc(C(=O)O)cc5n4C[C@@H]4CCO4)[C@H]4COC[C@H]43)c2O1` (single isomer, unassigned) [Example 15d, 4-Chloro-2-(((4aR*,7aS*)-4-((R*)-2-(4-chloro-2-fluorophenyl)-2-methylbenzo[d][1,3]dioxol-4-yl)hexahydrofuro[3,4-b]pyrazin-1(2H)-yl)methyl)-1-(((S)-oxetan-2-yl)methyl)-1H-benzo[d]imidazole-6-carboxylic acid], the pEC50 at human GLP-1R receptor is 6.72; in experiment [1], 6.80.
On the same counts, the results for `C[C@]1(c2ccc(Cl)cc2F)Oc2cccc(N3CCN(Cc4nc5c(F)cc(C(=O)O)cc5n4C[C@@H]4CCO4)[C@H]4COC[C@H]43)c2O1` (single isomer, unassigned) [Example 16d, 2-(((4aR*,7aS*)-4-((R*)-2-(4-Chloro-2-fluorophenyl)-2-methylbenzo[d][1,3]dioxol-4-yl)hexahydrofuro[3,4-b]pyrazin-1(2H)-yl)methyl)-4-fluoro-1-(((S)-oxetan-2-yl)methyl)-1H-benzo[d]imidazole-6-carboxylic acid] are 6.80 and 6.57.
As to `C[C@]1(c2ccc(Cl)cn2)Oc2cccc(N3CCN(Cc4nc5c(F)cc(C(=O)O)cc5n4CCn4cccn4)[C@H]4COC[C@H]43)c2O1` (single isomer, unassigned) [Example 11], the values for the pEC50 (at human GLP-1R receptor; in experiment [1]) were 7.02 and 7.46, respectively.
